The source of these data is patent US20150175655A1 (priority 2012, published 2015).

Common to all, as to assay type: cell-based
Assay [1] relates to genotype 1a stable HCV replicon (H77 strain) in Huh-7-derived cells. Briefly: Stable subgenomic HCV replicon EC50, genotype 1a (Renilla luciferase). The conditions noted are these: Hepatitis C virus, stable replicon genotype 1a, 72 h, read-out: EC50 1A RLUC. The method, then:
(§1) Antiviral potency (EC50) was determined in both stable subgenomic HCV replicon cell lines and transient-transfected HCV replicon cells. The term half maximal effective concentration (EC50) refers to the concentration of a drug which induces a response halfway between the baseline and maximum after the exposure time specified below.
(§2) Stable subgenomic HCV replicons for genotype 1a, 1 b, 2a, 3a, and 4a were established in Huh-7-derived cells as described by Lohmann et al (Lohmann V, Korner F, Koch J, et al Replication of subgenomic hepatitis C virus RNAs in a hepatoma cell line. Science 1999; 285:119-3). Each stable cell line contains a bicistronic HCV replicon that encodes a humanized Renilla luciferase (hRLuc) reporter gene fused to a selectable neomycin-resistance gene, followed by an EMCV IRES and the NS3-NS5B coding region of HCV. […] Luciferase activity was measured as a marker for intracellular HCV replication levels.
(§3) The genotype 1a stable replicon was derived from the H77 HCV strain and contained adaptive mutations P1496L and S2204I. The genotype 1 b stable replicon was derived from the Cont HCV strain and contained adaptive mutations E1202G, T1280I, and K1846T. […] The genotype 3a stable replicon was derived from the S52 HCV strain and contained adaptive mutations P1121 L, A1198T and S2210I (equivalent to S2204I in genotype 1). The genotype 4a stable replicon was derived from the ED43 HCV strain and contained adaptive mutations Q1691R and S2204I. All replicon cell lines were propagated in Huh-7-derived cells and maintained in Dulbecco's modified Eagle's Medium (DMEM) supplemented with 10% fetal bovine serum (FBS) and 0.5 mg/mL G418.
(§4) To perform EC50 assays, cells from each HCV replicon were dispensed into 384-well plates. Compounds were dissolved in DMSO at a concentration of 10 mM and diluted in DMSO using an automated pipetting instrument. Three-fold serially diluted compounds were directly added to the cells using an automated instrument. […] Seventy-two hours later, cells were lysed and Renilla luciferase activity were quantified as recommended by the manufacturer (Promega-Madison, Wis.). Non-linear regression was performed to calculate EC50 values.
Background: Replicon systems follow genome replication, usually without infectious particles.

Assay [2] relates to genotype 1b stable HCV replicon in Huh-7-derived cells. The assay can be described thus: Stable subgenomic HCV replicon EC50, genotype 1b (Renilla luciferase). To be noted: Hepatitis C virus, stable replicon genotype 1b, 72 h, read-out: EC50 1B RLUC. On the procedure:
as §1, §2, §3, §4

The test system of assay [3] is genotype 1a (H77) wild-type transient HCV replicon in Huh-7-derived cells. The assay can be described thus: Transient-transfected HCV replicon EC50, genotype 1a wild type. To be noted: Hepatitis C virus; transient-transfected replicon genotype 1a wild type, 72 h; read-out: EC50 1A WT.
Assay [4] concerns genotype 1a transient HCV replicon, NS3/4a protease inhibitor resistant variant R155K, in Huh-7-derived cells. The assay can be described thus: Transient-transfected HCV replicon EC50, genotype 1a R155K. The conditions noted are these: Hepatitis C virus, 72 h, read-out: EC50 1A R155K.
Assay [5] relates to genotype 1b (Con1) wild-type transient HCV replicon in Huh-7-derived cells. The assay can be described thus: Transient-transfected HCV replicon EC50, genotype 1b wild type. The conditions noted are these: Hepatitis C virus; transient-transfected replicon genotype 1b wild type, 72 h; read-out: EC50 1B WT.
Assay [6] relates to genotype 1b transient HCV replicon, NS3/4a protease inhibitor resistant variant D168A, in Huh-7-derived cells. Briefly: Transient-transfected HCV replicon EC50, genotype 1b D168A. The conditions noted are these: Hepatitis C virus, 72 h, read-out: EC50 1B D168A.

Broadly, the EC50 is the concentration needed to bring the measured effect to its halfway point. Take `COc1ccc2nc3c(nc2c1)O[C@H]1CN(C(=O)[C@H](C(C)(C)C)NC(=O)O[C@@H]2C[C@H]2CCCCC3F)[C@H](C(=O)N[C@]2(C(=O)NS(=O)(=O)C3(C)CC3)C[C@H]2C(F)F)[C@@H]1C` (stereo partly drawn) [Example 47, (1aR,5S,8S,9S,10R,22aR)-5-tert-butyl-N-[(1R,2R)-2-(difluoromethyl)-1-{[(1-methylcyclopropyl)sulfonyl]carbamoyl}cyclopropyl]-18-fluoro-14-methoxy-9-methyl-3,6-dioxo-1,1a,3,4,5,6,9,10,18,19,20,21,22,22a-tetradecahydro-8H-7,10-methanocyclopropa[18,19][1,10,3,6]dioxadiazacyclononadecino[11,12-b]quinoxaline-8-carboxamide]: the EC50 in assay [1] is 3.8 nM; in assay [2], 3.6 nM; in assay [3], 5.4 nM; in assay [4], 6.1 nM; in assay [5] it was 2 nM; in assay [6] it was 12 nM.
As for `CC[C@@H]1[C@@H]2CN(C(=O)[C@H](C(C)(C)C)NC(=O)O[C@@H]3C[C@H]3CC/C=C/C(F)(F)C3Nc4ccc(C#N)cc4N=C3O2)[C@@H]1C(=O)N[C@]1(C(=O)NS(=O)(=O)C2(C)CC2)C[C@H]1C(F)F` (stereo partly drawn) [Example 78, (1aR,5S,8S,9S,10R,19E,22aR)-5-tert-butyl-14-cyano-N-[(1R,2R)-2-(difluoromethyl)-1-{[(1-methylcyclopropyl)sulfonyl]carbamoyl}cyclopropyl]-9-ethyl-18,18-difluoro-3,6-dioxo-1,1a,3,4,5,6,9,10,17,17a,18,21,22,22a-tetradecahydro-8H-7,10-methanocyclopropa[18,19][1,10,3,6]dioxadiazacyclononadecino[11,12-b]quinoxaline-8-carboxamide], the half-maximal effective concentration (EC50) in assay [1] worked out at 267 nM; in assay [2] it was 394 nM; in assay [3] it was 189 nM; in assay [4], 225 nM; in assay [5], 156 nM; in assay [6], 248 nM.
As for `CC[C@@H]1[C@@H]2CN(C(=O)[C@H](C(C)(C)C)NC(=O)O[C@]3(C)CCC[C@H]3CCCCCc3nc4ccc(OC)cc4nc3O2)[C@@H]1C(=O)N[C@]1(C(=O)NS(=O)(=O)C2(C)CC2)C[C@H]1CC(F)F` [Example 41, (3aR,7S,10S,11S,12R,24aR)-7-tert-butyl-N-[(1R,2S)-2-(2,2-difluoroethyl)-1-{[(1-methylcyclopropyl)sulfonyl]carbamoyl}cyclopropyl]-11-ethyl-16-methoxy-3a-methyl-5,8-dioxo-1,2,3,3a,5,6,7,8,11,12,20,21,22,23,24,24a-hexadecahydro-10H-9,12-methanocyclopenta[18,19][1,10,3,6]dioxadiazacyclononadecino[11,12-b]quinoxaline-10-carboxamide], the EC50 in assay [1] was 135 nM; in assay [2], 142 nM; in assay [3], 164 nM; in assay [5], 154 nM.
For `C[C@@H]1[C@@H]2CN(C(=O)[C@H](C(C)(C)C)NC(=O)O[C@@H]3C[C@H]3CCCCC(F)(F)c3nc4ccc(Cl)cc4nc3O2)[C@@H]1C(=O)N[C@]1(C(=O)NS(=O)(=O)C2(C)CC2)C[C@H]1C(F)F` [Example 88, (1aR,5S,8S,9S,10R,22aR)-5-tert-butyl-14-chloro-N-[(1R,2R)-2-(difluoromethyl)-1-{[(1-methylcyclopropyl)sulfonyl]carbamoyl}cyclopropyl]-18,18-difluoro-9-methyl-3,6-dioxo-1,1a,3,4,5,6,9,10,18,19,20,21,22,22a-tetradecahydro-8H-7,10-methanocyclopropa[18,19][1,10,3,6]dioxadiazacyclononadecino[11,12-b]quinoxaline-8-carboxamide], the EC50 turned out to be 9.3 nM in assay [1]; 4.6 nM in assay [2]; 5 nM in assay [3]; 14 nM in assay [4]; 5.5 nM in assay [5]; 24 nM in assay [6].
